# Measurements from paper PMC11882969 (Nature Communications, 2025).
# “And” between values parts separate entries of the source, which are not always exact repeats. Equal values may be shown once.
# Legend:
# hCB1 [1] = target: T1, hCB1 (Homo sapiens, UniProt P21554); test: bioSensAll ebBRET signaling profiling, hCB1; assay type: cell-based; parameters: host or cells: HEK293SL cells, transient PEI transfection; details: for Gi1 hCB1 response: Gi1 biosensor; for Gi1 hCB1 / GoB hCB1: single replicate values, FigS6a; for EC50: read-out: EC50 [95% CI]; for Emax: normalized to CP-55,940
# CB1 (rCB1) = CB1 (rCB1) (Rattus norvegicus, UniProt P20272); test: Radioligand competition binding, [3H]-CP-55,940, rat brain membranes
# hCB1 [2] = target: T1, hCB1; test: Lance Ultra cAMP accumulation assay, CHO cells; assay type: cell-based; parameters: expressed in transfected cells;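 further: human CB1R stably expressed in CHO cells, ligands co-incubated with forskolin at room temperature, read-out is lowering of forskolin-stimulated cAMP accumulation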
# Procedure: The inhibition of forskolin-stimulated cAMP accumulation assays was carried out using PerkinElmer’s Lance Ultra cAMP kit following the manufacturer’s protocol. In brief, CHO cells stably expressing human CB1R (provided by the lab of Laura Bohn) were harvested by incubation with Versene (ThermoFisher Scientific, Waltham, MA) for 10 min, washed once with Hank’s Balanced Salt Solution, and resuspended in stimulation buffer at ~200 cells/μL density. The ligands at eight different concentrations (0.001-10,000 nM) in stimulation buffer (5 μL) containing forskolin (2 μM final concentration) were added to a 384-well plate followed by the cell suspension (5 μL; ~1000 cells/well). The plate was incubated for 30 min at room temperature. Eu-cAMP tracer (5 μL) and Ulight-anti-cAMP (5 μL) working solutions were then added to each well, and the plate was incubated at room temperature for an additional 60 min. Results were measured on a Perkin-Elmer EnVision plate reader. The EC50 values were determined by nonlinear regression analysis using Graphpad Prism 9 and are expressed as the mean of three experiments, each performed in triplicate.
# T1 sequence (P21554 whole entry): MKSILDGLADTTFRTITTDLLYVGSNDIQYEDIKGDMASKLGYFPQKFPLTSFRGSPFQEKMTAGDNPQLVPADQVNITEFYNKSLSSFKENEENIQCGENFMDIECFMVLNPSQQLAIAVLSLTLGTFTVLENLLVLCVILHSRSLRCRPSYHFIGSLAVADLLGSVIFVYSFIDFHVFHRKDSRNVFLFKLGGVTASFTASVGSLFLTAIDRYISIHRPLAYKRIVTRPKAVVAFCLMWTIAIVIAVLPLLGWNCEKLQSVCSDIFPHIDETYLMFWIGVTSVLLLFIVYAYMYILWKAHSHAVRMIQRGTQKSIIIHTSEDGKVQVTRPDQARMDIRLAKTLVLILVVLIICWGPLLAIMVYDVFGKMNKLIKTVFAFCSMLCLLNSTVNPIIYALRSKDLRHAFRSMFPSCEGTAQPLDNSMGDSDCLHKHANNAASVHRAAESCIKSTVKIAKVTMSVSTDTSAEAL
# CB1 (rCB1), sequence (P20272 whole entry): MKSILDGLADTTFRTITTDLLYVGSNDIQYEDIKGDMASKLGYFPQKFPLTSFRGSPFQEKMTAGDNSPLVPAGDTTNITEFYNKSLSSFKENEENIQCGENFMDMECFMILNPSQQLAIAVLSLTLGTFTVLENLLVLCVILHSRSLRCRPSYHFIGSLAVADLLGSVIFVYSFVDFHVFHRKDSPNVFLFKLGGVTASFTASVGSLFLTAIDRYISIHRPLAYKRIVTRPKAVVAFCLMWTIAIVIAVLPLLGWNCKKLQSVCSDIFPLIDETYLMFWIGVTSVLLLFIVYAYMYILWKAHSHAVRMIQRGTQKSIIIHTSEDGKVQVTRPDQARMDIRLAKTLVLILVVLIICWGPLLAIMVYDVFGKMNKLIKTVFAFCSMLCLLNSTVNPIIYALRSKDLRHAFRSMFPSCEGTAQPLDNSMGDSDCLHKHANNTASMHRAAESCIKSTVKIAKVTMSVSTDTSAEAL
structure (smiles),measurement,setting,value
COC(=O)[C@](C)(NC(=O)c1cc(C)n(-c2cccc(C(F)(F)F)c2)n1)c1cccs1 [‘8690],Gi1 hCB1 response,hCB1 [1]; Log [Compound] (M) -4.63927,107.576
same,Gi1 hCB1 response,hCB1 [1]; Log [Compound] (M) -5.05788,100.593
same,Gi1 hCB1 response,hCB1 [1]; Log [Compound] (M) -5.47381,88.91
same,Gi1 hCB1 response,hCB1 [1]; Log [Compound] (M) -5.89285,68.8562
same,Gi1 hCB1 response,hCB1 [1]; Log [Compound] (M) -6.31878,81.5241
same,Gi1 hCB1 response,hCB1 [1]; Log [Compound] (M) -6.72585,77.4731
same,Gi1 hCB1 response,hCB1 [1]; Log [Compound] (M) -7.14267,64.4023
same,Gi1 hCB1 response,hCB1 [1]; Log [Compound] (M) -7.55284,52.8535
same,Gi1 hCB1 response,hCB1 [1]; Log [Compound] (M) -8,17.9832
same,Gi1 hCB1 response,hCB1 [1]; Log [Compound] (M) -8.22186,31.0987
same,Gi1 hCB1 response,hCB1 [1]; Log [Compound] (M) -8.39794,14.4917
same,Gi1 hCB1 response,hCB1 [1]; Log [Compound] (M) -8.68787,15.566
same,Gi1 hCB1 response,hCB1 [1]; Log [Compound] (M) -9.15521,3.502
same,Gi1 hCB1 response,hCB1 [1]; Log [Compound] (M) -9.61989,4.487
same,Gi1 hCB1 response,hCB1 [1]; Log [Compound] (M) -10.0969,-7.576
same,Gi1 hCB1 response,hCB1 [1]; Log [Compound] (M) -10.5529,-10.5308
same,Gi1 hCB1 response,hCB1 [1]; Log [Compound] (M) -11.0177,-2.272
same,Gi1 hCB1 response,hCB1 [1]; Log [Compound] (M) -11.4949,-1.802
same,Gi1 hCB1 response,hCB1 [1]; Log [Compound] (M) -11.9208,-1.466
same,Gi1 hCB1 response,hCB1 [1]; Log [Compound] (M) -12.3979,8.695
same,Gi1 hCB1 response,hCB1 [1]; Log [Compound] (M) -12.8861,6.367
same,Gi1 hCB1 response,"hCB1 [1]; Log [Compound] (M) -13, individual replicate values",-3.951
same,Gi1 hCB1,hCB1 [1]; Log [Compound] (M) -4.22186,95.271 and 72.3781
same,GoB hCB1,hCB1 [1]; Log [Compound] (M) -4.22186,82.2993 and 86.8881
same,Gi1 hCB1,hCB1 [1]; Log [Compound] (M) -4.63927,89.1198 and 73.8984
same,GoB hCB1,hCB1 [1]; Log [Compound] (M) -4.63927,85.86 and 78.0511
same,Gi1 hCB1,hCB1 [1]; Log [Compound] (M) -5.05788,89.7364 and 64.618
same,GoB hCB1,hCB1 [1]; Log [Compound] (M) -5.05788,82.8568 and 73.8497
same,Gi1 hCB1,hCB1 [1]; Log [Compound] (M) -5.47381,86.2831 and 71.6021
same,GoB hCB1,hCB1 [1]; Log [Compound] (M) -5.47381,95.4631 and 77.0615
same,Gi1 hCB1,hCB1 [1]; Log [Compound] (M) -5.89285,88.8731 and 77.0341
same,GoB hCB1,hCB1 [1]; Log [Compound] (M) -5.89285,89.4387 and 75.2907
same,Gi1 hCB1,hCB1 [1]; Log [Compound] (M) -6.31878,83.354 and 71.8555
same,GoB hCB1,hCB1 [1]; Log [Compound] (M) -6.31878,83.9538 and 76.1935
same,Gi1 hCB1,hCB1 [1]; Log [Compound] (M) -6.72585,79.6848 and 68.7673
same,GoB hCB1,hCB1 [1]; Log [Compound] (M) -6.72585,88.3597 and 69.9433
same,Gi1 hCB1,hCB1 [1]; Log [Compound] (M) -7.14267,72.1769 and 53.833
same,GoB hCB1,hCB1 [1]; Log [Compound] (M) -7.14267,73.7932 and 56.1409
same,Gi1 hCB1,hCB1 [1]; Log [Compound] (M) -7.55284,51.6729 and 43.6499
same,GoB hCB1,hCB1 [1]; Log [Compound] (M) -7.55284,61.8702 and 41.6614
same,Gi1 hCB1,hCB1 [1]; Log [Compound] (M) -8,32.3713 and 22.1909
same,GoB hCB1,hCB1 [1]; Log [Compound] (M) -8,32.3776 and 21.4874
same,Gi1 hCB1,hCB1 [1]; Log [Compound] (M) -8.22186,19.0514 and 17.5665
same,GoB hCB1,hCB1 [1]; Log [Compound] (M) -8.22186,16.1566 and 14.2824
same,Gi1 hCB1,hCB1 [1]; Log [Compound] (M) -8.39794,17.4789 and 12.7996
same,GoB hCB1,hCB1 [1]; Log [Compound] (M) -8.39794,19.8252 and 10.1677
same,Gi1 hCB1,hCB1 [1]; Log [Compound] (M) -8.68787,7.998 and 0.7635
same,GoB hCB1,hCB1 [1]; Log [Compound] (M) -8.68787,1.86 and 2.6849
same,Gi1 hCB1,hCB1 [1]; Log [Compound] (M) -9.15521,2.91 and 0.2884
same,GoB hCB1,hCB1 [1]; Log [Compound] (M) -9.15521,1.788 and -5.44
same,Gi1 hCB1,hCB1 [1]; Log [Compound] (M) -9.61989,1.7386 and -5.445
same,GoB hCB1,hCB1 [1]; Log [Compound] (M) -9.61989,-0.8737 and -6.308
same,Gi1 hCB1,hCB1 [1]; Log [Compound] (M) -10.0969,1.245 and -4.415
same,GoB hCB1,hCB1 [1]; Log [Compound] (M) -10.0969,-2.852 and -5.544
same,Gi1 hCB1,hCB1 [1]; Log [Compound] (M) -10.5529,0.9678 and -3.3699
same,GoB hCB1,hCB1 [1]; Log [Compound] (M) -10.5529,-2.528 and -5.649
same,Gi1 hCB1,hCB1 [1]; Log [Compound] (M) -11.0177,2.371 and -4.415
same,GoB hCB1,hCB1 [1]; Log [Compound] (M) -11.0177,-2.294 and -7.871
same,Gi1 hCB1,hCB1 [1]; Log [Compound] (M) -11.4949,-0.1731 and -5.27
same,GoB hCB1,hCB1 [1]; Log [Compound] (M) -11.4949,0.583 and -6.36
same,Gi1 hCB1,hCB1 [1]; Log [Compound] (M) -11.9208,0.6903 and -3.196
same,GoB hCB1,hCB1 [1]; Log [Compound] (M) -11.9208,1.158 and -6.864
same,Gi1 hCB1,hCB1 [1]; Log [Compound] (M) -12.3979,1.692 and -4.146
same,GoB hCB1,hCB1 [1]; Log [Compound] (M) -12.3979,3.838 and -6.76
same,Gi1 hCB1,hCB1 [1]; Log [Compound] (M) -12.8861,2.602 and -5.207
same,GoB hCB1,hCB1 [1]; Log [Compound] (M) -12.8861,-0.1004 and -5.944
same,Gi1 hCB1,hCB1 [1]; Log [Compound] (M) -13,1.677 and 3.693
same,GoB hCB1,hCB1 [1]; Log [Compound] (M) -13,-0.7478 and -0.8395
same,Gi1 hCB1,hCB1 [1]; Log [Compound] (M) cell empty,-2.293
same,GoB hCB1,hCB1 [1]; Log [Compound] (M) cell empty,-5.1625
same,pEC50 [95% CI],hCB1 [1]; hCB1 Gi1,7.72 [7.6 – 7.8]
same,pEC50 [95% CI],hCB1 [1]; hCB1 GoB,7.8 [7.7 – 7.9]
same,pEC50 [95% CI],hCB1 [1]; hCB1 Gz,7.5 [6.9 – 7.8]
same,EC50,hCB1 [1]; hCB1 GoB,0.018 µM
same,EC50,hCB1 [1]; hCB1 Gz,0.033 µM
same,Emax,"hCB1 [1]; read-out: Emax [95% CI], hCB1 Gi1",82%
same,Emax,"hCB1 [1]; read-out: Emax [95% CI], hCB1 GoB",83%
same,Emax,"hCB1 [1]; read-out: Emax [95% CI], hCB1 Gz",98%
same,pKi [95% CI],CB1 (rCB1); rCB1,7.1 [6.9 – 7.3]
same,Ki,"CB1 (rCB1); read-out: Ki [95% CI], rCB1, [3H]-CP-55,940",0.0902 µM
same,EC50,hCB1 [2],0.473 µM
same,Lance Ultra cAMP pEC50,hCB1 [2],6.3 [5.8 – 7.0]
same,Emax,hCB1 [2]; CHO,53%
